# Patent publication US8506973B2, “Injectable anticancer composition for local administration containing hydroxychloroquine” (priority 2009, dated 2013)
# Columns and labels:
# Sarcoma-180 cells = test: Inhibitory effect on differentiation of subcutaneously transplanted Sarcoma-180 cells in ICR mice; format: in vivo; details: cisplatin 20 mg/m^2, 12 animals per group, average of two tests
# Procedure: A sarcoma-180 cell suspension having a cell concentration of 2×10^7 cells/ml was transplanted by subcutaneous injection into the inguinal region of all the groups excluding the normal group, thereby inducing solid cancer.
# On the final day of the test, the animals were biopsied, and the number of animals in which sarcoma-180 cells stably grew was measured and used as an anticancer index. The same test was carried out twice, and the two measurements were averaged.
# [1] = Solubility of hydroxychloroquine (statement); format: physicochemical
SMILES,number of animals in which cancer cells were observed in the inguinal region by biopsy (Sarcoma-180 cells),solubility at room temperature (in words) [1]
"N.N.[Cl][Pt][Cl] [cisplatin, Cisplatin]",4.5 animals,
CCN(CCO)CCCC(C)Nc1ccnc2cc(Cl)ccc12 (centres unmarked) [hydroxychloroquine],,insoluble at room temperature
